Tested on: cleaved PARP-1
Assay: Western blot, cleaved PARP-1
Type: cell-based, human
Conditions: PANC-1, 3 and 6 μM, 48 h
From the text: To further investigate the mechanism of action of the triazole derivative 12, an apoptosis analysis was subsequently performed in PANC-1 cells. The early stages of apoptosis are characterized by the disruption of membrane asymmetry and the translocation of phosphatidylserine from the inner to the outer leaflet of the plasma membrane, which can be detected using Annexin V-FITC, a protein with high affinity for phosphatidylserine. In the later stages of apoptosis, the cell membrane loses its integrity, allowing propidium iodide (PI) to penetrate into the cell. Thus, PANC-1 cells treated with compound 12 at 3 and 6 μM for 48 h were analyzed by flow cytometry after Annexin V-FITC and PI staining (Figure 1B, bottom panel; and Figure 1D). This analysis can distinguish and quantify viable cells (annexin V−, PI−), early apoptotic cells (annexin V+, PI−), late apoptotic cells (annexin V+, PI+), and necrotic cells (annexin V−/PI+). […]
PANC-1 (1.5 × 10^5 cells/well) were seeded in six-well plates, allowed to adhere overnight, and treated with 3 µM and 6 µM of compound 12 for 48 h. Protein lysates were obtained in RIPA buffer with protease inhibitors (Sigma-Aldrich, Lisbon, Portugal) and quantified using Pierce® bicinchoninic acid (BCA) protein assay reagents (Thermo Fisher Scientific, Porto Salvo, Portugal). […]

C=C1CC[C@@H]2[C@](C)(COC(C)=O)[C@H](OC(C)=O)CC[C@@]2(C)[C@@H]1C[C@H](C1=CCOC1=O)n1cc(-c2ccc(Br)cc2)nn1 [Compound 12, (12R)-4-bromophenyl-1,2,3-triazole-3,19-diacetoxy-14-deoxy-andrographolide]
levels of cleaved PARP-1: significant increase in the levels of cleaved PARP-1

From publication PMC12114840, “Exploring the Anticancer Properties of 1,2,3-Triazole-Substituted Andrographolide Derivatives” (Pharmaceuticals, 2025)
